{"source": "patent US12465610B2", "about": "“Compounds and methods for the treatment of PKR-associated diseases” (Board of Regents, The University of Texas System, priority 2019, dated 2025)", "key": {"H1299 tumor xenografts": {"test_system": "H1299 tumor xenografts", "assay": "Tumor xenograft growth in mice", "format": "in vivo", "procedure": "(§1) The effects of Pac 1 and Pac 2 were next examined on PKR protein expression in HeLa cells using Western blot analysis. […] No reduction in normal cell viability was observed after treatment with Pac 1 or Pac 2 (FIGS. 5F and G). […] Because most of the cancer cell lines that were tested were more sensitive to Pac 1 than to Pac 2, Pac 1 was further investigated.\n(§2) Analysis of in vivo tumor growth after treatment with Pac 1: For in vivo tumor studies, MDA-MB-231 or H1299 cells (˜1×10^6) were resuspended in 0.1 mL of PBS and injected subcutaneously into the flanks of female severe combined immunodeficiency mice. When the resulting tumors reached 100-150 mm^3 in volume, the mice were stratified into groups of eight animals, with each group having approximately equal mean tumor volumes, and administered intravenous injection of Pac 1. The animals were weighed weekly, and their tumor diameters were measured twice weekly. When a tumor reached 2000 mm^3 or became necrotic, the animal was killed."}, "[1]": {"test_system": "MDA-MB-231 tumor xenografts", "assay": "Tumor xenograft growth in mice", "format": "in vivo", "conditions": "intravenous injection, over 4 weeks", "procedure": "as §1, §2"}, "leukemia cell lines": {"test_system": "leukemia cell lines", "assay": "3-(4,5-dimethylthiazol-2-yl)-2,5-diphenyltetrazolium bromide viability assay", "format": "cell-based", "procedure": "(§3) Cell viability assays: For SRB assays, cells (2-8×10^3/well in 100 μL of culture medium) were seeded in 96-well flat-bottomed plates and treated the next day with compounds at the indicated concentrations. After the indicated treatments, cells were fixed with trichloroacetic acid. The protein was stained with SRB, and the optical density at 570 nm was determined. Relative cell viability was calculated by setting the viability rate of the control cells (exposed only to dimethyl sulfoxide) at 100% and comparing the viability of the treated cells with that of the controls. The experiments were performed at least three times for each cell line. The viability of leukemia cell lines was determined by using a 3-(4,5-dimethylthiazol-2-yl)-2,5-diphenyltetrazolium bromide assay."}, "p-4EBP1 (T70), PP2A": {"test_system": "p-4EBP1 (T70), PP2A", "assay": "Western blot of p-4EBP1 and p-PP2Ac", "format": "cell-based, human", "conditions": "H1299 and A549 cells"}, "PIM1": {"biological_target": "PIM1 (Homo sapiens, UniProt P11309)", "sequence (P11309 whole entry)": "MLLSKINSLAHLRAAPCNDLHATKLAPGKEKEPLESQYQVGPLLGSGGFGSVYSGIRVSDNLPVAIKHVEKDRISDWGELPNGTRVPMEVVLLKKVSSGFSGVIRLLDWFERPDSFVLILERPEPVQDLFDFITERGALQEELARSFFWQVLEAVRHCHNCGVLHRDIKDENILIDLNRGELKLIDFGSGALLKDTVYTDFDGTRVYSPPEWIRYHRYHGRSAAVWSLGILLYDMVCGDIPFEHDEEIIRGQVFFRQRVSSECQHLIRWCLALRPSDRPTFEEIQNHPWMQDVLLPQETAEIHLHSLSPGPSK", "assay": "High-throughput enzymatic screening", "format": "biochemical"}, "PI4KIIb": {"biological_target": "PI4KIIb (Homo sapiens, UniProt Q8TCG2)", "sequence (Q8TCG2 whole entry)": "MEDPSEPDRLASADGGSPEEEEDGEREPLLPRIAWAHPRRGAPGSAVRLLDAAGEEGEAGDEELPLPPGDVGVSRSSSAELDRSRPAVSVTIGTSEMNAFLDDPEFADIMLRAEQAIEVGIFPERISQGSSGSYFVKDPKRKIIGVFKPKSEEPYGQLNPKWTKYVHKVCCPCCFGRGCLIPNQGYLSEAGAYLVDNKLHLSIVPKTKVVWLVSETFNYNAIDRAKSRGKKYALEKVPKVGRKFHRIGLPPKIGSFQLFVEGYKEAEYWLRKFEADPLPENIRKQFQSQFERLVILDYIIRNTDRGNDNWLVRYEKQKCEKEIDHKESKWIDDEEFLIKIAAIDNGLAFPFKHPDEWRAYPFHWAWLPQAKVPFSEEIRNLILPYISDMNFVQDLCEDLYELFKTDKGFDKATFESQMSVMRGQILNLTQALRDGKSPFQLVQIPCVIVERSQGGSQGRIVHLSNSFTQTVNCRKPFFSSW", "assay": "ADP-Glo kinase assay, high-throughput enzymatic screening (Reaction Biology)", "format": "biochemical"}, "[2]": {"test_system": "127 human lung cancer cell lines", "assay": "SRB assay, oncopanel of 127 lung cancer cell lines", "format": "cell-based", "from_the_text": "Antiproliferative effect of Pac 1 and Pac 2 on an oncopanel of lung cancer cell lines: The antiproliferative effect of treatment with Pac1 were further tested on an oncopanel of 127 cell lines of various lung tumor origins. […] RPPA analysis of Pac 1-sensitive cells identified correlation with higher expression of GSK3 (FIG. 16B), and Pac 1-resistant cells correlation with higher expression of IRS1, Caveolin and PKCA (PS657) (FIG. 16B). Analyzed the Pac1 sensitivity with gene mutation observed that low Pac 1 IC50 correlated with VCAN and ZNF804A mutation, and high Pac 1 IC50 correlated with LOXHD1 and CDH12 mutation (FIG. 16C). VCAN mutant lung cancer cells are sensitive to treatment of Pac 1.\nas §3"}, "[3]": {"test_system": "normal cells (HBE, human mammary epithelial cells)", "assay": "SRB cell viability assay, normal cells", "format": "cell-based", "conditions": "72 hours after treatment, HBE and human mammary epithelial cells", "procedure": "as §1, §3\nFor the SRB assay, cells (2-8×10^3/well in 100 μL of culture medium) were seeded in 96-well flat-bottomed plates and treated the next day with compounds at the indicated concentrations. […] The cells were stained using SRB, and the optical density at 570 nm was determined. […]"}, "PI4K2A kinase": {"biological_target": "PI4K2A kinase (Homo sapiens, UniProt Q9BTU6)", "sequence (Q9BTU6 whole entry)": "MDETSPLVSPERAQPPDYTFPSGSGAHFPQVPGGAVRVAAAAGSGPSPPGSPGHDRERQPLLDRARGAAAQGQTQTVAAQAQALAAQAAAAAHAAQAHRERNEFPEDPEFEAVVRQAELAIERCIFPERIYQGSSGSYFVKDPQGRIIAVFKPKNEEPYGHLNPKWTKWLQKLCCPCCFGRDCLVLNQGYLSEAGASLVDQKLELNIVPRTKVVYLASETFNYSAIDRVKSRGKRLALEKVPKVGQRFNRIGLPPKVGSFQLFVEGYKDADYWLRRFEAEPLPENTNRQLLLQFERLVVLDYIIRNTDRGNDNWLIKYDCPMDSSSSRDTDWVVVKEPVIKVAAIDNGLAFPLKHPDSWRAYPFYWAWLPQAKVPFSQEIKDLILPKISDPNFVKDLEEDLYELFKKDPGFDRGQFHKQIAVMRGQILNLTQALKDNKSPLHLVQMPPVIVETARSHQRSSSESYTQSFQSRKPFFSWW", "assay": "ADP-Glo kinase assay, high-throughput enzymatic screening (Reaction Biology)"}, "PI4KIIIb": {"biological_target": "PI4KIIIb (Homo sapiens, UniProt Q9UBF8)", "sequence (Q9UBF8 whole entry)": "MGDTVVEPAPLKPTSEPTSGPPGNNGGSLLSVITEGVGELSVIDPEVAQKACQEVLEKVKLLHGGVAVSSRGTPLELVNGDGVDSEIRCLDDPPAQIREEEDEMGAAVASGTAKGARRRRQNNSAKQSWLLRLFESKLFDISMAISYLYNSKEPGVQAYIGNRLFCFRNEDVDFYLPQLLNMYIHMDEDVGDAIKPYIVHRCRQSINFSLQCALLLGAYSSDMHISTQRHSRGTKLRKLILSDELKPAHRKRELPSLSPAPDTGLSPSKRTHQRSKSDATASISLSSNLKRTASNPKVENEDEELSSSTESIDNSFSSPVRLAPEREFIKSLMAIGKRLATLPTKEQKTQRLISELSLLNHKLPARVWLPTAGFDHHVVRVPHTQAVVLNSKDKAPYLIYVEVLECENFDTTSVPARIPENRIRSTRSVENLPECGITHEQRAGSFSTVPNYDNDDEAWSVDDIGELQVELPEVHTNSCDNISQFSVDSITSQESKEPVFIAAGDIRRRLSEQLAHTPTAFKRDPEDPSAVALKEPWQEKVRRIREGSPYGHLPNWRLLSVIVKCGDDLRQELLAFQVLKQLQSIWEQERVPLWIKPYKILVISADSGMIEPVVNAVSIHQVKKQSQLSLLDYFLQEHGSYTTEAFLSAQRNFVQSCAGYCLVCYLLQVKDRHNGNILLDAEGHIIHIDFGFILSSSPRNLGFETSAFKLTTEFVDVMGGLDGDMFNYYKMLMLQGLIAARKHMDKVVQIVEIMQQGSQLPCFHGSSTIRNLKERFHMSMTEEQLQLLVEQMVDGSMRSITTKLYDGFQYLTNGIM", "assay": "ADP-Glo kinase assay, high-throughput enzymatic screening (Reaction Biology)", "format": "biochemical"}, "PKR and p-PKR": {"test_system": "PKR and p-PKR", "assay": "Western blot of PKR and p-PKR protein expression", "format": "cell-based, human"}, "PI3Ka": {"biological_target": "PI3Ka (Homo sapiens, UniProt P42336)", "assay": "ADP-Glo kinase assay, high-throughput enzymatic screening (Reaction Biology)", "format": "biochemical"}, "AP-1/2/3 complexes": {"test_system": "AP-1/2/3 complexes", "assay": "Western blot of AP-1, AP-2 and AP-3 complex-associated proteins", "format": "cell-based, human", "conditions": "H1299 and MDA-MB-231 cells", "from_the_text": "Western blotting was next used to evaluate proteins known to be involved in AP-1/2/3 complexes in lung (H1299) and breast (MDA-MB-231) cancer cells after treatment with Pac 1 or Pac 2. […] AP-1 and AP-2 mediate protein sorting in the endosome, trans-Golgi network, and plasma membrane. […] The impact of Pac 1 was then investigated on lysosome function by staining cells with the acidophilic dye LysoTracker Red."}, "PI4KIIIa": {"biological_target": "PI4KIIIa (Homo sapiens, UniProt P42356)", "sequence (P42356 whole entry)": "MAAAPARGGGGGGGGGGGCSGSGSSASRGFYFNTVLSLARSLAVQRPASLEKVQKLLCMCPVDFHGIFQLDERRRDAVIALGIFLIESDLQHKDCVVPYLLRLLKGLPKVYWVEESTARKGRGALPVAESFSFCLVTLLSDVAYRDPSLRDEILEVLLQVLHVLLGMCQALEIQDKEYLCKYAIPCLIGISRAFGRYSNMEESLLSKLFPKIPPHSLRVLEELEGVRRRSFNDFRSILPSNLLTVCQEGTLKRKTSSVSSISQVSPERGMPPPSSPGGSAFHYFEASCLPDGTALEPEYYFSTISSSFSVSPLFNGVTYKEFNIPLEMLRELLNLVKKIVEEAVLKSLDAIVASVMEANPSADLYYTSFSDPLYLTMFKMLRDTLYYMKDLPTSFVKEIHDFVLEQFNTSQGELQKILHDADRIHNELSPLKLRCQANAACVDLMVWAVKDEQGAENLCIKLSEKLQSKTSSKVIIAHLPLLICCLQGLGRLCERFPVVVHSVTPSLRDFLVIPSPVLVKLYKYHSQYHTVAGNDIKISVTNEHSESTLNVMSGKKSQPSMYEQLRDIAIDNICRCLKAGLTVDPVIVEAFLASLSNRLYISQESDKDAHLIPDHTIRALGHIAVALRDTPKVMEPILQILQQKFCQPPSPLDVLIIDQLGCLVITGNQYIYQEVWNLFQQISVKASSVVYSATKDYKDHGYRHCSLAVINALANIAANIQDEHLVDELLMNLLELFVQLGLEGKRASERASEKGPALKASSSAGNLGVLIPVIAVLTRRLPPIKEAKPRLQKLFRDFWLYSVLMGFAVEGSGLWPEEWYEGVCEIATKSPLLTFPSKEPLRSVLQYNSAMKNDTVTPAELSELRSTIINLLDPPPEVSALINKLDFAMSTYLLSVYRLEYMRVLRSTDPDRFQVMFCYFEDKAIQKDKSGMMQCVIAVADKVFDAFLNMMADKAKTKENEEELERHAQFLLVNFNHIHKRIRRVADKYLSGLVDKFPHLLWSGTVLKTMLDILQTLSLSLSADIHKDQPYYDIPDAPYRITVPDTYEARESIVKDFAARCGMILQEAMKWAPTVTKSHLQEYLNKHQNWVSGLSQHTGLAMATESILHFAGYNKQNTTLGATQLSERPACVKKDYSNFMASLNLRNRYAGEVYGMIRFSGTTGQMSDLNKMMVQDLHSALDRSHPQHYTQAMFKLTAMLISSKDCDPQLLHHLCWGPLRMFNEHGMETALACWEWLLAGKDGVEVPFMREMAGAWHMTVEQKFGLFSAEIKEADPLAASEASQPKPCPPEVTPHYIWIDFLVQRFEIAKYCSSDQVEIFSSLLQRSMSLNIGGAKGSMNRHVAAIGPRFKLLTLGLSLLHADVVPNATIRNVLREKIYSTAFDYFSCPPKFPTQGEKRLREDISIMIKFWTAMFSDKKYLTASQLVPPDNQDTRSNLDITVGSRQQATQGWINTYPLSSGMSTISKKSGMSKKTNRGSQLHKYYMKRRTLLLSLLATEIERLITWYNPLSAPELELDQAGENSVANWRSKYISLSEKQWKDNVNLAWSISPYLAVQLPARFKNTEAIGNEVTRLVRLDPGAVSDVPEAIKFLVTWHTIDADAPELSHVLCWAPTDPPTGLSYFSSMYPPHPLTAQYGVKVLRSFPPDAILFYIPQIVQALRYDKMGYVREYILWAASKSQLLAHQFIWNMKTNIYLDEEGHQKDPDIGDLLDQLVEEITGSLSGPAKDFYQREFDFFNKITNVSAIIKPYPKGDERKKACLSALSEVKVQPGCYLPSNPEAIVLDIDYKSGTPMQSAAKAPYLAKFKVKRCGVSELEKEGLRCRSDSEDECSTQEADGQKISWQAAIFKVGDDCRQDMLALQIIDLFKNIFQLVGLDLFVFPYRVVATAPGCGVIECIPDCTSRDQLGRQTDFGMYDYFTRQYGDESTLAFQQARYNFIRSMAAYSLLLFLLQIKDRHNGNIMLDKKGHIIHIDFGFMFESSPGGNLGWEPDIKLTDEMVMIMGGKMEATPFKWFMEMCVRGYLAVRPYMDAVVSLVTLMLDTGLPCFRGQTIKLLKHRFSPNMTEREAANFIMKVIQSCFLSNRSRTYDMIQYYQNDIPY", "assay": "ADP-Glo kinase assay, high-throughput enzymatic screening (Reaction Biology)", "format": "biochemical"}}}
{"smiles": "O=C(N/N=C\\c1c(O)ccc2ccccc12)c1cccc2cc[nH]c12", "note": "[Pac 1, N′—[(Z)-(2-Hydroxy-1-naphthyl)methylene]-1H-indole-7-carbohydrazide]", "values": [{"measurement": "expression of PKR, p-PKR, and Ki-67 protein in tumors", "setting": "H1299 tumor xenografts; H1299 tumors, immunohistochemical analysis", "result": "dramatically suppressed"}, {"measurement": "growth of H1299 tumor xenografts", "setting": "H1299 tumor xenografts; intravenous injection, over 4 weeks", "result": "inhibited the growth"}, {"measurement": "growth of MDA-MB-231 tumor xenografts", "setting": "[1]", "result": "inhibited the growth"}, {"measurement": "growth of leukemia cell lines", "setting": "leukemia cell lines", "result": "growth inhibition"}, {"measurement": "PP2A activity, indicated by dissociation of the p-PP2Ac complex", "setting": "p-4EBP1 (T70), PP2A", "result": "Inactivation of PP2A was observed"}, {"measurement": "expression of p-4EBP1 (T70) protein", "setting": "p-4EBP1 (T70), PP2A; 72 hours after treatment", "result": "reduction of expression"}, {"measurement": "inhibition of PIM3/1 activity", "setting": "PIM1", "result": "markedly inhibited"}, {"measurement": "inhibition of kinase activity", "setting": "PI4KIIb", "result": "not other kinases"}, {"measurement": "IC50", "setting": "[2]; Homo sapiens, sensitive cell lines of the oncopanel of 127 lung cancer cell lines", "result": "10 to 950", "unit": "nM"}, {"measurement": "sensitivity of VCAN mutant lung cancer cells", "setting": "[2]; VCAN mutants versus VCAN wild-type cells", "result": "sensitive"}, {"measurement": "share of cell lines sensitive", "setting": "[2]; oncopanel of 127 cell lines of various lung tumor origins", "result": "Sixty-five"}, {"measurement": "normal cell viability", "setting": "[3]", "result": "No reduction"}, {"measurement": "IC50", "setting": "PI4K2A kinase", "result": 2500, "unit": "nM"}, {"measurement": "inhibition of kinase activity", "setting": "PI4KIIIb", "result": "not other kinases"}, {"measurement": "PKR and p-PKR expression", "setting": "PKR and p-PKR; A549 and H1299 cells, 5 μM, 72 hours", "result": "markedly reduced"}, {"measurement": "expression of PKR and p-PKR", "setting": "PKR and p-PKR; HeLa cells, 72 hours after treatment", "result": "significantly reduced"}, {"measurement": "PKR, p-PKR, and PI4K2A expression", "setting": "PKR and p-PKR; LOVO colon cancer cells, 72 hours, various doses", "result": "reduced PKR, p-PKR, and PI4K2A expression"}, {"measurement": "PKR expression", "setting": "PKR and p-PKR; breast cancer cell lines, 72 hours, various doses", "result": "reduced PKR expression"}, {"measurement": "inhibition of kinase activity", "setting": "PI3Ka", "result": "not other kinases"}, {"measurement": "PI4K2A, Lamp1, Lamp2, and AP-3δ expression", "setting": "AP-1/2/3 complexes; 5 μM, 72 hours", "result": "significantly inhibited"}, {"measurement": "expression of proteins associated with AP-1 (Rab7α, HSC70, AP-1γ) or AP-2 (AP-2α)", "setting": "AP-1/2/3 complexes; 72 hours after treatment", "result": "No reduction of expression"}, {"measurement": "inhibition of kinase activity", "setting": "PI4KIIIa", "result": "not other kinases"}]}
